This assay deals with Escherichia coli ATCC 25922. Nature of the assay: Minimum inhibitory concentration (MIC), CLSI broth micro-dilution, E. coli. Format: cell-based. As to conditions: Escherichia coli. The method in brief: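 Colonies grown 20 h at 35° C on Trypticase Soy agar (MRSA) or Luria agar (E. coli) were suspended in cation-adjusted Mueller Hinton broth with 0.002% Tween-80. Suspensions were added at OD600 0.0005 to 10-point twofold compound dilutions, then incubated 22 h at 35° C.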

Where [1] appears, read: ATCC25922, 22 h, Table 7, cation adjusted Mueller Hinton Broth + 0.002% Tween-80, 35° C.

MIC data for nine compounds are collected here from patent US20260274892A1, “MACROCYCLIC BROAD SPECTRUM ANTIBIOTICS” (RQx Pharmaceuticals, Inc., priority 2017, published 2026).

For orientation: MIC means the lowest concentration found to suppress growth.

For the compound `Cc1nc(-c2ccc(C(C)(C)C)cc2)nc(C)c1C(=O)N[C@@H](CCNS(N)(=O)=O)C(=O)N(C)[C@@H]1C(=O)N[C@@H](C)C(=O)N[C@H](C(=O)NCC#N)Cc2ccc(OCCN)c(c2)-c2cc1ccc2OCCN` (racemic) [Compound 574, rac-(8S,11S,14S)-3,18-bis(2-aminoethoxy)-N-(cyanomethyl)-11-methyl-14-[methyl-[rac-(2S)-2-[[2-(4-tert-butylphenyl)-4,6-dimethyl-pyrimidine-5-carbonyl]amino]-4-(sulfamoylamino)butanoyl]amino]-10,13-dioxo-9,12-diazatricyclo[13.3.1.12,6]icosa-1(18),2(20),3,5,15(19),16-hexaene-8-carboxamide], the MIC under setting [1] amounted to 0.5 µM.
With `Cc1nc(-c2ccc(C(C)(C)C)cc2)nc(C)c1C(=O)N[C@@H](CNS(N)(=O)=O)C(=O)N(C)[C@@H]1C(=O)N[C@@H](C)C(=O)N[C@H](C(=O)NCC#N)Cc2ccc(OCCCN)c(c2)-c2cc1ccc2OCCCN` (racemic) [Compound 575, rac-(8S,11S,14S)-3,18-bis(3-aminopropoxy)-N-(cyanomethyl)-11-methyl-14-[methyl-[rac-(2S)-2-[[2-(4-tert-butylphenyl)-4,6-dimethyl-pyrimidine-5-carbonyl]amino]-3-(sulfamoylamino)propanoyl]amino]-10,13-dioxo-9,12-diazatricyclo[13.3.1.12,6]icosa-1(18),2(20),3,5,15(19),16-hexaene-8-carboxamide], under setting [1], the MIC turned out to be 0.31 µM.
On to `Cc1nc(-c2ccc(OC3CCCCC3)cc2)nc(C)c1C(=O)N[C@@H](CNS(N)(=O)=O)C(=O)N(C)[C@@H]1C(=O)N[C@@H](C)C(=O)N[C@H](C(=O)NCC#N)Cc2ccc(OCCCN)c(c2)-c2cc1ccc2OCCCN` (racemic) [Compound 576, rac-(8S,11S,14S)-3,18-bis(3-aminopropoxy)-N-(cyanomethyl)-11-methyl-14-[methyl-[rac-(2S)-2-[[2-[4-(cyclohexoxy)phenyl]-4,6-dimethyl-pyrimidine-5-carbonyl]amino]-3-(sulfamoylamino)propanoyl]amino]-10,13-dioxo-9,12-diazatricyclo[13.3.1.12,6]icosa-1(18),2(20),3,5,15(19),16-hexaene-8-carboxamide], for which the MIC under setting [1] is 0.5 µM.
Same read-out and setting: the result for `Cc1nc(-c2ccc(C(C)(C)C)cc2)nc(C)c1C(=O)N[C@@H](CNS(N)(=O)=O)C(=O)N(C)[C@@H]1C(=O)N[C@@H](C)C(=O)N[C@H](C(=O)NCC#N)Cc2ccc(OC[C@H](O)CN)c(c2)-c2cc1ccc2OC[C@H](O)CN` (racemic) [Compound 577, rac-(8S,11S,14S)-N-(cyanomethyl)-11-methyl-14-[methyl-[rac-(2S)-2-[[2-(4-tert-butylphenyl)-4,6-dimethyl-pyrimidine-5-carbonyl]amino]-3-(sulfamoylamino)propanoyl]amino]-10,13-dioxo-3,18-bis[rac-(2R)-3-amino-2-hydroxy-propoxy]-9,12-diazatricyclo[13.3.1.12,6]icosa-1(18),2(20),3,5,15(19),16-hexaene-8-carboxamide] reads 0.21 µM; that for `Cc1nc(-c2ccc(OC3CCCCC3)cc2)nc(C)c1C(=O)N[C@@H](CNS(N)(=O)=O)C(=O)N(C)[C@@H]1C(=O)N[C@@H](C)C(=O)N[C@H](C(=O)NCC#N)Cc2ccc(OC[C@H](O)CN)c(c2)-c2cc1ccc2OC[C@H](O)CN` (racemic) [Compound 578, rac-(8S,11S,14S)-N-(cyanomethyl)-11-methyl-14-[methyl-[rac-(2S)-2-[[2-[4-(cyclohexoxy)phenyl]-4,6-dimethyl-pyrimidine-5-carbonyl]amino]-3-(sulfamoylamino)propanoyl]amino]-10,13-dioxo-3,18-bis[rac-(2R)-3-amino-2-hydroxy-propoxy]-9,12-diazatricyclo[13.3.1.12,6]icosa-1(18),2(20),3,5,15(19),16-hexaene-8-carboxamide], 0.19 µM.
On the same count and under the same terms, the result for `Cc1nc(-c2ccc(OC(C)C)cc2)nc(C)c1C(=O)N[C@@H](CNS(N)(=O)=O)C(=O)N(C)[C@@H]1C(=O)N[C@@H](C)C(=O)N[C@H](C(=O)NCC#N)Cc2ccc(OC[C@H](O)CN)c(c2)-c2cc1ccc2OC[C@H](O)CN` (racemic) [Compound 579, rac-(8S,11S,14S)-N-(cyanomethyl)-11-methyl-14-[methyl-[rac-(2S)-2-[[2-(4-isopropoxyphenyl)-4,6-dimethyl-pyrimidine-5-carbonyl]amino]-3-(sulfamoylamino)propanoyl]amino]-10,13-dioxo-3,18-bis[rac-(2R)-3-amino-2-hydroxy-propoxy]-9,12-diazatricyclo[13.3.1.12,6]icosa-1(18),2(20),3,5,15(19),16-hexaene-8-carboxamide] reads 0.75 µM.
For the compound `Cc1nc(-c2ccc(C(C)(C)C)cc2)nc(C)c1C(=O)N[C@@H](CCNS(N)(=O)=O)C(=O)N(C)[C@@H]1C(=O)N[C@@H](C)C(=O)N[C@H](C(=O)NCC#N)Cc2ccc(OC[C@H](O)CN)c(c2)-c2cc1ccc2OC[C@H](O)CN` (racemic) [Compound 580, rac-(8S,11S,14S)-N-(cyanomethyl)-11-methyl-14-[methyl-[rac-(2S)-2-[[2-(4-tert-butylphenyl)-4,6-dimethyl-pyrimidine-5-carbonyl]amino]-4-(sulfamoylamino)butanoyl]amino]-10,13-dioxo-3,18-bis[rac-(2R)-3-amino-2-hydroxy-propoxy]-9,12-diazatricyclo[13.3.1.12,6]icosa-1(18),2(20),3,5,15(19),16-hexaene-8-carboxamide], the MIC under setting [1] amounted to 0.58 µM.
As to `Cc1nc(-c2ccc(C(C)(C)C)cc2)nc(C)c1C(=O)N[C@@H](CNS(N)(=O)=O)C(=O)N(C)[C@@H]1C(=O)N[C@@H](C)C(=O)N[C@H](C(=O)NCC#N)Cc2ccc(OC[C@@H](O)CN)c(c2)-c2cc1ccc2OC[C@@H](O)CN` (racemic) [Compound 581, rac-(8S,11S,14S)-N-(cyanomethyl)-11-methyl-14-[methyl-[rac-(2S)-2-[[2-(4-tert-butylphenyl)-4,6-dimethyl-pyrimidine-5-carbonyl]amino]-3-(sulfamoylamino)propanoyl]amino]-10,13-dioxo-3,18-bis[rac-(2S)-3-amino-2-hydroxy-propoxy]-9,12-diazatricyclo[13.3.1.12,6]icosa-1(18),2(20),3,5,15(19),16-hexaene-8-carboxamide], the MIC under setting [1] turned out to be 0.25 µM.
On to `Cc1nc(-c2ccc(C(C)(C)C)cc2)nc(C)c1C(=O)N[C@@H](CNS(N)(=O)=O)C(=O)N(C)[C@@H]1C(=O)N[C@@H](C)C(=O)N[C@H](C(=O)NCC#N)Cc2ccc(OC[C@H](O)CN)c(c2)-c2cc1cc(OC[C@H](O)CN)c2O` (racemic) [Compound 582, rac-(8S,11S,14S)-N-(cyanomethyl)-18-hydroxy-11-methyl-14-[methyl-[rac-(2S)-2-[[2-(4-tert-butylphenyl)-4,6-dimethyl-pyrimidine-5-carbonyl]amino]-3-(sulfamoylamino)propanoyl]amino]-10,13-dioxo-3,17-bis[rac-(2R)-3-amino-2-hydroxy-propoxy]-9,12-diazatricyclo[13.3.1.12,6]icosa-1(18),2(20),3,5,15(19),16-hexaene-8-carboxamide], for which the MIC (ATCC25922, Table 7, cation adjusted Mueller Hinton Broth + 0.002% Tween-80, 35° C., 22 hours) is 0.75 µM.
